Tests used:
[1] = target: Transient receptor potential cation channel subfamily V member 4 (Homo sapiens, UniProt Q9HBA0); experiment: Antagonist activity at human TRPV4 assessed as inhibition of 4alpha-PDD-induced activation
[2] = Antagonist activity at guinea pig TRPV4 assessed as inhibition of 4alpha-PDD-induced activation; parameters: species or system Cavia porcellus
[3] = target: Transient receptor potential cation channel subfamily V member 4 (Rattus norvegicus, UniProt Q9ERZ8); experiment: Antagonist activity at rat TRPV4 assessed as inhibition of 4alpha-PDD-induced activation
[4] = Ratio of free plasma concentration to IC50 for TRPV4 in guinea pig; assay type: ADME, cell-free, Cavia porcellus
[5] = Selectivity ratio of IC50 for rat TRPV4 to IC50 for human TRPV4
Cavia porcellus = experiment: Analgesic activity in po dosed Dunkin-Hartley guinea pig complete Freund's adjuvant-induced mechanical hyperalgesia model assessed as reversal in paw withdrawal threshold measured up to 6 hrs post dose relative to control; assay type: functional
[6] = Plasma concentration in po dosed Dunkin-Hartley guinea pig complete Freund's adjuvant-induced mechanical hyperalgesia model measured up to 6 hrs post dose; assay type: ADME, organism-based, Cavia porcellus
[7] = Protein binding in guinea pig; assay type: ADME, Cavia porcellus; conditions: read-out: PB (converted)
[8] = Stability in human liver microsomes assessed as parent compound remaining after 30 mins in presence or absence of NADPH; assay type: ADME, microsome; conditions: read-out: Stability
[9] = Stability in rat liver microsomes assessed as parent compound remaining after 30 mins in presence or absence of NADPH; assay type: ADME, microsome; conditions: read-out: Stability
Rattus norvegicus [10] = experiment: Analgesic activity in rat assessed as reversal of complete Freund's adjuvant-induced mechanical hyperalgesia at 30 mg/kg, po after 1 hr relative to control; assay type: functional
Rattus norvegicus [11] = experiment: Analgesic activity in rat assessed as reversal of complete Freund's adjuvant-induced mechanical hyperalgesia at 30 mg/kg, po after 5 hrs relative to control; assay type: functional

Transient receptor potential cation channel subfamily V member 4 (Rattus norvegicus, UniProt Q9ERZ8), sequence (Q9ERZ8 whole entry): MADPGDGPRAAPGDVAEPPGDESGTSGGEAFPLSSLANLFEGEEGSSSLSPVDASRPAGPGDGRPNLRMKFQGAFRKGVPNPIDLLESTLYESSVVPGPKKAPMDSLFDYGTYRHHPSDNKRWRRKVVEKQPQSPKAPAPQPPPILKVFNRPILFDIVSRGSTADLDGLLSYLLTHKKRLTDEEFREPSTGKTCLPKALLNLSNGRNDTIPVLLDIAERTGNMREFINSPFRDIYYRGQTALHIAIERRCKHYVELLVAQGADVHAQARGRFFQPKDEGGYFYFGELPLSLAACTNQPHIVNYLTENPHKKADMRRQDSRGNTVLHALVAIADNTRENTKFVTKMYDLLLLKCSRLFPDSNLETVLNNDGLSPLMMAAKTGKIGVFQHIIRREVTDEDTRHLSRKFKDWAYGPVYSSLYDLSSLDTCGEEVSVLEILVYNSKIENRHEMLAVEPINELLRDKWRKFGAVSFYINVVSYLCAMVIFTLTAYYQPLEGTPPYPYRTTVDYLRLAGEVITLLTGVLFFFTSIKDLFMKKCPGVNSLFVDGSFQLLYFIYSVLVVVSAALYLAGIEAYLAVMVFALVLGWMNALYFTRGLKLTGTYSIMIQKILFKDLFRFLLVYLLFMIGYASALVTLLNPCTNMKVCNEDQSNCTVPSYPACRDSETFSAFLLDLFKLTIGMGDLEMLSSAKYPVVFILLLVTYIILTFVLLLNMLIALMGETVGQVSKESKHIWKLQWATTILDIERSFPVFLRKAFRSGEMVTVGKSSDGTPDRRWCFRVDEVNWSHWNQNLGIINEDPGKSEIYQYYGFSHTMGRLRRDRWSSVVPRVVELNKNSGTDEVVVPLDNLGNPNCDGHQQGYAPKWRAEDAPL
Transient receptor potential cation channel subfamily V member 4 (Homo sapiens, UniProt Q9HBA0), sequence (Q9HBA0 whole entry): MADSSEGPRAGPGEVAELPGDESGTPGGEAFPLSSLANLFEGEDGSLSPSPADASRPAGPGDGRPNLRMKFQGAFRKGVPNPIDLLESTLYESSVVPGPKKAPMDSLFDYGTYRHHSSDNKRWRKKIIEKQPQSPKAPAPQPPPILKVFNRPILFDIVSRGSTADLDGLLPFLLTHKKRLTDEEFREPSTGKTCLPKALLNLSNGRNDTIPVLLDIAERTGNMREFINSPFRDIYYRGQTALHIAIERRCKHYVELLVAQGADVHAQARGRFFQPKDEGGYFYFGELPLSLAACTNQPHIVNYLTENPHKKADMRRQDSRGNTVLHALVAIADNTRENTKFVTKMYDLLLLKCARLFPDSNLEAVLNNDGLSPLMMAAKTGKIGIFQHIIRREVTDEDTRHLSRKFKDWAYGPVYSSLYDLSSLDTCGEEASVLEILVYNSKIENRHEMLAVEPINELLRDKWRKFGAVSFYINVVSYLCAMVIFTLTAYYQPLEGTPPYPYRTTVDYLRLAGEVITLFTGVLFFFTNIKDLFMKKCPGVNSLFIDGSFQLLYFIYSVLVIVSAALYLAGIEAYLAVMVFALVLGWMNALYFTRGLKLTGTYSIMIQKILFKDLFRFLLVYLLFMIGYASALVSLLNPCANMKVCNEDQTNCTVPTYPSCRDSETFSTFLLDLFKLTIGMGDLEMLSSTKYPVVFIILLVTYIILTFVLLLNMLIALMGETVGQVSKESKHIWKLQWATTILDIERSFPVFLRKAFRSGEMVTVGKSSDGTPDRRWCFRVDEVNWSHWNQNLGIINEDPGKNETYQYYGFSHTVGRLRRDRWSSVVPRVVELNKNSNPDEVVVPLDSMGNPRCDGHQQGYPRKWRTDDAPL

| SMILES | IC50 [1] | IC50 [2] | IC50 [3] | remaining at 0.5 h [8] | remaining at 0.5 h [9] | also measured |
| --- | --- | --- | --- | --- | --- | --- |
| Cc1nc(C)c(-c2csc(Nc3ccc(C(=O)N4[C@@H]5CC[C@H]4C[C@@H](N)C5)cn3)n2)s1 | 530 nM | – | – | – | – | – |
| Cc1nc(C)c(-c2csc(Nc3ccc(C(=O)N4C5CCC4CNC5)cn3)n2)s1 | 620 nM | – | – | 64.9% | 63.9% | – |
| COC(=O)N1CCN(C(=O)c2ccc(Nc3nc(-c4sc(C)nc4C)cs3)nc2)CC1 | 37 nM | 56 nM | 1100 nM | 94.1% | 77.9% | – |
| Cc1nc(C)c(-c2csc(Nc3ccc(C(=O)N4[C@@H]5CC[C@H]4C[C@@H](CO)C5)cn3)n2)s1 | 41 nM | – | – | – | – | – |
| Cc1nc(C)c(-c2csc(Nc3ccc(C(=O)N4[C@@H]5CC[C@H]4C/C(=N/OCC(N)=O)C5)cn3)n2)s1 | 24 nM | – | – | 89% | 84.8% | – |
| Cc1nc(C)c(-c2csc(Nc3ccc(C(=O)N4C5CCC4CC(=O)C5)cn3)n2)s1 | 24 nM | 45 nM | 360 nM | – | – | Ratio IC50 [5]: 15 |
| COc1ccc2c(c1)c(CC(=O)O)c(C)n2C(=O)c1ccc(Cl)cc1 [INDOMETHACIN] | – | – | – | – | – | Activity (Rattus norvegicus [10]): 11.4%; Activity (Rattus norvegicus [11]): 6.1% |
| CO[C@H]1C[C@H]2CC[C@@H](C1)N2C(=O)c1ccc(Nc2nc(-c3sc(C)nc3C)cs2)nc1 | 2.4 nM | – | – | – | – | – |
| Cc1nc(C)c(-c2csc(Nc3ccc(C(=O)N4[C@@H]5CC[C@H]4C[C@@H](NC(=O)CC(F)(F)F)C5)cn3)n2)s1 | 19 nM | – | – | – | – | – |
| Cc1nc(C)c(-c2csc(Nc3ccc(C(=O)N4[C@@H]5CC[C@H]4C[C@@H](O)C5)cn3)n2)s1 | 32 nM | 33 nM | 1000 nM | – | – | – |
| CC(=O)N[C@H]1C[C@H]2CC[C@@H](C1)N2C(=O)c1ccc(Nc2nc(-c3sc(C)nc3C)cs2)nc1 | 80 nM | – | – | – | – | – |
| CC(=O)N1CC2CCC(C1)N2C(=O)c1ccc(Nc2nc(-c3sc(C)nc3C)cs2)nc1 | 32 nM | 21 nM | 600 nM | 59.4% | 92.1% | – |
| Cc1nc(C)c(-c2csc(Nc3ccc(C(=O)N4[C@@H]5CC[C@H]4C[C@H](O)C5)cn3)n2)s1 | 650 nM | – | – | – | – | – |
| CNC(=O)N1CC2CCC(C1)N2C(=O)c1ccc(Nc2nc(-c3sc(C)nc3C)cs2)nc1 | 770 nM | – | – | 83.5% | 88.5% | – |
| Cc1c(C(=O)Nc2cccc(C(F)(F)F)c2)cc(-c2ccccc2)n1CCCN1CCOCC1 | 57 nM | – | – | – | – | – |

More lines, in order of falling IC50 [1], values ahead:

| IC50 [1] | IC50 [2] | IC50 [3] | remaining at 0.5 h [8] | remaining at 0.5 h [9] | SMILES | also measured |
| --- | --- | --- | --- | --- | --- | --- |
| 19 nM | 27 nM | 800 nM | – | – | Cc1nc(C)c(-c2csc(Nc3ccc(C(=O)N4C5COCC4CC(=O)C5)cn3)n2)s1 | Ratio [4]: 1.9; Ratio IC50 [5]: 42; Activity (Cavia porcellus): 30.8%; concentration at 6 h [6]: 515 ng/mL; fraction unbound [7]: 0.1 |
| 8.4 nM | – | – | 80.5% | 38.8% | Cc1nc(C)c(-c2csc(Nc3ccc(C(=O)N4[C@@H]5CC[C@H]4C/C(=N/O)C5)cn3)n2)s1 | – |
| 6.7 nM | 6.2 nM | 290 nM | – | – | Cc1nc(C)c(-c2csc(Nc3ccc(C(=O)N4[C@@H]5CC[C@H]4C[C@@H](OC(=O)NCCF)C5)cn3)n2)s1 | – |
| 6.2 nM | 10 nM | 200 nM | – | – | Cc1nc(C)c(-c2csc(Nc3ccc(C(=O)N4[C@@H]5CC[C@H]4C[C@@H](OCCO)C5)cn3)n2)s1 | – |
| 6 nM | – | – | 84.9% | 74.5% | Cc1nc(C)c(-c2csc(Nc3ccc(C(=O)N4[C@@H]5CC[C@H]4C/C(=N/OCCO)C5)cn3)n2)s1 | – |
| 4.8 nM | 2.7 nM | 120 nM | – | – | Cc1nc(C)c(-c2csc(Nc3ccc(C(=O)N4[C@@H]5CC[C@H]4C[C@@H](Oc4ncc(C(F)(F)F)cn4)C5)cn3)n2)s1 | – |
| 4.5 nM | 6.4 nM | 57 nM | 77% | 83.7% | Cc1nc(C)c(-c2csc(Nc3ccc(C(=O)N4[C@@H]5CC[C@H]4C/C(=N/OC4CCN(C)CC4)C5)cn3)n2)s1 | – |
| 4.4 nM | 8.3 nM | – | 70% | 75.5% | Cc1nc(C)c(-c2csc(Nc3ccc(C(=O)N4[C@@H]5CC[C@H]4CC(=NOCC(C)(C)O)C5)cn3)n2)s1 | – |
| 3.2 nM | 4.3 nM | 100 nM | 57.9% | 71.5% | Cc1nc(C)c(-c2csc(Nc3ccc(C(=O)N4C5CNCC4COC5)cn3)n2)s1 | – |
| 3.2 nM | 8.8 nM | 410 nM | 72.6% | 68.3% | Cc1nc(C)c(-c2csc(Nc3ccc(C(=O)N4C5CCC4CN(c4ccc(Cl)cc4)C5)cn3)n2)s1 | – |
| 2.9 nM | 3.3 nM | 57 nM | 64.5% | 59.1% | Cc1nc(C)c(-c2csc(Nc3ccc(C(=O)N4[C@@H]5CC[C@H]4C/C(=N/OCCCO)C5)cn3)n2)s1 | – |
| 2.8 nM | – | – | 0.58% | 0% | Cc1nc(C)c(-c2csc(Nc3ccc(C(=O)N4C5CCC4CN(C4CCCCC4)C5)cn3)n2)s1 | – |
| 2.1 nM | – | – | 0% | 8.5% | Cc1nc(C)c(-c2csc(Nc3ccc(C(=O)N4C5CCC4CN(CC(F)(F)F)C5)cn3)n2)s1 | – |
| 1.9 nM | – | – | – | – | CCNC(=O)O[C@H]1C[C@H]2CC[C@@H](C1)N2C(=O)c1ccc(Nc2nc(-c3sc(C)nc3C)cs2)nc1 | – |
| 1.8 nM | – | – | 33.7% | 43.8% | COC(=O)N1CC2CCCC(C1)N2C(=O)c1ccc(Nc2nc(-c3sc(C)nc3C)cs2)nc1 | – |
| 1.7 nM | 2 nM | 53 nM | 48.6% | 53% | COC(=O)N1CC2CCC(C1)N2C(=O)c1ccc(Nc2nc(-c3sc(C)nc3C)cs2)nc1 | – |
| 1.1 nM | 2.3 nM | 29 nM | 43% | 49.6% | Cc1nc(C)c(-c2csc(Nc3ccc(C(=O)N4[C@@H]5CC[C@H]4C/C(=N/OC[C@@H](O)C(F)(F)F)C5)cn3)n2)s1 | – |
| 1 nM | – | – | 79.1% | 12.5% | CO/N=C1\C[C@H]2CC[C@@H](C1)N2C(=O)c1ccc(Nc2nc(-c3sc(C)nc3C)cs2)nc1 | – |
| 0.9 nM | 0.7 nM | 20 nM | 72.7% | 89% | Cc1nc(C)c(-c2csc(Nc3ccc(C(=O)N4C5CCC4CN(c4ccc(Cl)cn4)C5)cn3)n2)s1 | – |
| 0.57 nM | 2.7 nM | 15 nM | 64.1% | 49.2% | COC(=O)N1CCN(C(=O)c2ccc(Nc3nc(-c4sc(C)nc4C)cs3)nc2)C(C(F)(F)F)C1 (stereo not given) | – |
| 0.36 nM | 2 nM | 18 nM | 47.7% | 50.4% | Cc1nc(C)c(-c2csc(Nc3ccc(C(=O)N4[C@@H]5CC[C@H]4C/C(=N/OCC(F)(F)F)C5)cn3)n2)s1 | – |
| 0.3 nM | 2 nM | 16 nM | 76.4% | 68.4% | Cc1nc(C)c(-c2csc(Nc3ccc(C(=O)N4C5CCC4CN(c4ncc(Cl)cn4)C5)cn3)n2)s1 | – |

— ChEMBL document CHEMBL3853343, “Discovery of novel 2',4'-dimethyl-[4,5'-bithiazol]-2-yl amino derivatives as orally bioavailable TRPV4 antagonists for the treatment of pain: Part 2” (Bioorg Med Chem Lett, 2016)
